Results reported in US11324725B2, “Compositions and methods for the inhibition of pruritus” (The United States of America, as represented by the …, priority 2017, dated 2022).
Entries after “also recorded” stand apart in the source; their conditions may differ.

Assays:
Firefly luciferase = Firefly luciferase (Photinus pyralis, UniProt P08659); test: Biochemical Firefly luciferase enzymatic counter-screen; conditions: for Imax, Fluc in vitro: −100% = 57.5 μM PTC124, n.d. = inhibition not detectable at all; for Direct effect on Firefly luciferase (in words): FLuc in vitro
Firefly luciferase, sequence (P08659 whole entry): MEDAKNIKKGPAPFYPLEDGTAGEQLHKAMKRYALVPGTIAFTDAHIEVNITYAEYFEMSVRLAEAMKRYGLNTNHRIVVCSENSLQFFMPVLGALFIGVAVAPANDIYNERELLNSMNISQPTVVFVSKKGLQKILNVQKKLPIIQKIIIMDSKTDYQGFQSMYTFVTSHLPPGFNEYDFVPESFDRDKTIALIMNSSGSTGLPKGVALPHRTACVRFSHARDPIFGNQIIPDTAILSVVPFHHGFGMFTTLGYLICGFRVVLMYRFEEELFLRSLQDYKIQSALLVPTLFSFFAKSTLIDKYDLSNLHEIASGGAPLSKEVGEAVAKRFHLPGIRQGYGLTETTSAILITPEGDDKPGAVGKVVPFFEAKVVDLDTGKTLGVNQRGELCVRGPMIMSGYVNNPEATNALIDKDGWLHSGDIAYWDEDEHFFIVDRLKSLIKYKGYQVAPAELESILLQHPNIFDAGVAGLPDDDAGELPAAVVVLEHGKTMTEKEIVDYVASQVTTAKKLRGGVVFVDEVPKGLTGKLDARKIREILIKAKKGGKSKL
Method: Direct effects of compounds on firefly luciferase enzymatic activity were tested in vitro. A Firefly luciferase enzyme assay was performed on the 1,408 follow-up compounds. To achieve half-maximal reaction velocity, the D-Luciferin substrate concentration equaled Km and the assay was otherwise performed according to Jang et al., ACS Chem. Bio., 7: 1205-1213 (2012) (which is incorporated herein by reference, in its entirety), as follows: 3 μl of substrate-buffer solution (0.01 mM D-Luciferin, 0.01 mM ATP, 50 mM Tris Acetate, 10 mM Mg Acetate, 0.01% Tween-20 and 0.038% BSA final concentrations) were dispensed into white, solid bottom medium bind 1536-well plates (Greiner Bio-One) with a BioRAPTR Flying Reagent Dispenser™ (Beckman Coulter). Compounds were transferred as described for qHTS along with DMSO (as a negative control) and titrations of PTC124 (as a positive control), ranging from the top concentration of 57.5 μM to 4.0 μM in columns 1-4 of each plate as vehicle and positive controls, respectively. Luciferase enzyme-buffer solution (1 μl) (10 nM P. pyralis luciferase in 50 mM Tris Acetate final concentration) was dispensed and after a 5-minute incubation at room temperature, luminescence was read on a ViewLux™ plate reader.

[1] = tested on: soluble guanylate cyclase / pGloSensor-40F reporter in HEK-cGMP-sensor cells; test: Counter-screen, SNP-stimulated HEK-cGMP-sensor cells; format: cell-based, human
Source text: In order to identify small molecular compounds that inhibit the Npr1 receptor a high-throughput assay to probe inhibition of the receptor guanylate cyclase Npr1 was developed. The assay was designed taking advantage of Promega's GloSensor™ technology (Promega, Madison, Wis.). This technology involves the expression of a cyclic guanosine monophosphate (cGMP) biosensor, comprised of a firefly luciferase variant that was coupled to the cGMP binding domain of human phosphodiesterase 5A, and loading of cells with a cell-permeable luciferase substrate to monitor cGMP production by Npr1 in real time in live cells. Briefly, human embryonic kidney 293 cells stably expressing the human Npr1 and the pGloSensor™-40F cGMP vector (“pGloSensor™-40F”) were generated. Stimulating these cells with the Npr1 agonists human NppA or NppB, luciferase-induced light production could be detected in a dose-dependent manner. HEK293 cells stably expressing human Npr2 and pGS-40F and cells only expressing pGS-40F were also generated to conduct secondary counter screens. In these cells, NppC or sodium nitroprusside were used to stimulate Npr2 or soluble guanylate cyclase which is endogenously expressed in HEK293 cells, respectively. The Npr2-NppC counter screen was employed to search for agents that minimally effected this agonist-receptor interaction. The Npr2-NppC system was used because the side effects of most drugs occur on related receptors. Npr1 and Npr2 are the most related receptors in sequence and function and there are no additional active receptor subtypes in this family of receptors. The procedure is described in detail below.
First, hNpr1 assays were repeated, at 11 concentrations on all selected compounds, to validate all positive compounds from the primary screen. This confirmed the selection criteria used for the selection of the active compounds. […]

[2] = tested on: HEK-hNpr1-cGMP-sensor cells; test: Cytotoxicity counter-screen (CellTiter-Glo); format: cell-based, human; conditions: for Imax, cytotoxicity: −100% = 115 μM Digitonin, n.d. = inhibition not detectable at all
Method: (§1) Compound cytotoxicity was tested with Promega's CellTiter-Glo™ assay which measures cellular adenosine triphosphate content, a surrogate of metabolic activity, with a firefly luciferase reagent. A cytotoxicity counter-screen using HEK-hNpr1-cGMP-sensor cells was performed on the 1,408 follow-up compounds. Cells (1.5×10^3) cells were plated in 4 μL C02-independent media in white, solid bottom TC-treated 1536-well plates (Greiner Bio-One). Cells were incubated at 37° C., 5% CO2 and 95% humidity for 16 hours. Compound transfer was performed as described for qHTS along with DMSO and a titration of Digitonin from a top concentration of 115 μM to 3.5 nM in columns 1-4 of each assay plate as vehicle and cytotoxicity controls, respectively. Cells were incubated with compound for 2 hours at 37° C. CellTiter-Glo™ reagent (Promega) (3 μl) was added to each well with a BioRAPTR Flying Reagent Dispenser™ (Beckman Coulter) and plates were incubated for 10 min at room temperature, protected from light. Luminescence was measured on a ViewLux™ plate reader. Data were normalized to the average signal of DMSO-treated wells as 0% and the average signal of wells treated with 115 μM Digitonin as −100% activity and analyzed as above.

[3] = Cytotoxicity counter-screen (CellTiter-Glo); format: cell-based, human; conditions: human, HEK-hNpr1-cGMP-sensor cells; 2 hours with compound, CellTiter-Glo
Method: as §1

[4] = Rat liver microsome stability assay; format: in vitro ADME; conditions: pH 7.4; rat liver microsomes
Method: Single time point microsomal stability was determined in a 96-well HTS format. Sample preparation was automated using an EVO 200 robot (Tecan, Switzerland). A high-resolution LC/MS (Thermo QExactive, ThermoFisher (Waltham, Mass.)) instrument was used to measure the percentage of compound remaining after incubation using a known method. Six standard controls were tested in each run: buspirone and propranolol (for short half-life), loperamide and diclofenac (for short to medium half-life), and carbamazepine and antipyrine (for long half-life). Briefly, the incubation consisted of 0.5 mg/mL microsomal protein, 1.0 μM compound concentration, and NADPH regeneration system (containing 0.650 mM NADP+, 1.65 mM glucose 6-phosphate, 1.65 mM MgCl2, and 0.2 U/mL G6PDH) in 100 mM phosphate buffer at pH 7.4. The incubation was carried out at 37° C. for 15 min. The reaction was quenched by adding 555 μL of acetonitrile (1:2 ratio) containing 0.28 μM albendazole (internal standard).

SMILES	Imax, Fluc in vitro (Firefly luciferase) [%]	IC50 (Firefly luciferase) [µM]	Effect on SNP-induced GloSensor signals (in words) [1]	Direct effect on Firefly luciferase (in words) (Firefly luciferase)	Cytotoxicity (in words) [2]	IC50 at 2 h [3] [µM]	Imax, cytotoxicity [2] [%]	half-life at 1 μM [4] [min]
Cl.O=C1Nc2ccccc2CN(CC2CCCCC2)C12CCNCC2 [JS-1, 4-(cyclohexylmethyl)-4,5-dihydrospiro[benzo[e][1,4]diazepine-3,4′-piperidin]-2(1H)-one hydrochloride]	−3 ± 3							
CCC(CC)c1cc([C@H]2CN3CC[C@H]2C[C@@H]3CNS(=O)(=O)c2cccs2)nc(-c2ccncc2)n1 [JS-3, N-(((2R,4S,5R)-5-(6-(pentan-3-yl)-2-(pyridin-4-yl)pyrimidin-4-yl)quinuclidin-2-yl)methyl)thiophene-2-sulfonamide]	−1 ± 6	25 ± 4						
Cc1noc(C)c1-c1cc(-c2ccccc2Oc2ccccc2)cn2cncc12 [JS-5, 3,5-dimethyl-4-(6-(2-phenoxyphenyl)imidazo[1,5-a]pyridin-8-yl)isoxazole]			do not attenuate SNP dependent cGMP sensor activation; also recorded: does not block SNP-induced GloSensor™ signals	do not directly inhibit luciferase; also recorded: does not inhibit Firefly luciferase	are not cytotoxic; also recorded: does not produce cytotoxicity			
COc1ccccc1-c1n[nH]c2ncc(C(=O)NCc3cccnc3)nc12 [JS-6, 3-(2-methoxyphenyl)-N-(pyridin-3-ylmethyl)-1H-pyrazolo[3,4-b]pyrazine-5-carboxamide]						45 ± 43	−36 ± 87	
Cc1nn2c(c1-c1ccccc1OCc1ccccc1)N(C(=O)Cc1ccc3c(c1)OCO3)CCC2 [JS-8, 2-(benzo[d][1,3]dioxol-5-yl)-1-(3-(2-(benzyloxy)phenyl)-2-methyl-6,7-dihydropyrazolo[1,5-a]pyrimidin-4(5H)-yl)ethan-1-one]			do not attenuate SNP dependent cGMP sensor activation; also recorded: does not block SNP-induced GloSensor™ signals	do not directly inhibit luciferase; also recorded: does not inhibit Firefly luciferase	are not cytotoxic; also recorded: does not produce cytotoxicity	49 ± 14	−22 ± 29	
Cc1cc(CNC(=O)c2ccc3c(c2)n(CC2CC2)c(=O)n3C2CCCCC2)on1 [JS-11, 1-cyclohexyl-3-(cyclopropylmethyl)-N-((3-methylisoxazol-5-yl)methyl)-2-oxo-2,3-dihydro-1H-benzo[d]imidazole-5-carboxamide]			do not attenuate SNP dependent cGMP sensor activation; also recorded: does not block SNP-induced GloSensor™ signals	do not directly inhibit luciferase; also recorded: does not inhibit Firefly luciferase	are not cytotoxic; also recorded: does not produce cytotoxicity			12.4
